Data on 41 compounds can be found in patent US9695175B2, “Highly selective c-Met inhibitors as anticancer agents” (Crown Bioscience Inc. (Taiwan), priority 2012, dated 2017).

The target in assay [1] is c-Met protein in S114 cells (Homo sapiens (Human), UniProt P08581). In words: S114 cell-based ELISA, phosphorylation of c-Met protein. The settings on record: 30 min compound incubation, phospho-c-Met ELISA. The protocol:
Cell-Based ELISA [Method] Use ELISA to measure the phosphorylation of c-Met protein in […] cells [Instrument] ENVISION plate reader of PerKinElmer […] [Procedure] […] cells are cultured in DMEM medium (containing 10% FBS). When cells reach 80% confluency, they are collected by trypsinization and centrifugation at 800 rpm for 5 min. The cells are re-suspended in DMEM and adjusted to a density of 500,000 cells/mL. A 96-well plate is pretreated with a solution of Firbronectin in PBS (5 μg/mL) at 100 μL per well for 2 hr. The cell suspension is split into the 96-well culture plate at 100 uL per well and incubated (37° C., 5% CO2) overnight. The capture antibody is diluted with 1/2 Tris-ammonium bicarbonate buffer (1:1000) and transferred into a 96-well absorption plate (70 μL per well) at 4° C. overnight. The solution is discarded and the plate is washed with blocking buffer, followed by adding blocking buffer (150 μL per well), and kept at room temperature for 1 hr. The medium in the 96-well culture plate is discarded and the plate is washed with DMEM (without FBS). Then 80 μL of DMEM (without FBS) and 20 μL of test compound solution at various concentrations in DMEM (without FBS) are added. The culture plate is kept in a culture incubator for 30 min (37° C., 5% CO2). The cell culture medium is discarded and the culture plate is washed with PBS, followed by adding lysis buffer (50 μL per well) and incubated at 4° C. for 20 min. The solution in the absorption plate is discarded and the plate is washed with binding buffer. To each well of the absorption plate is added binding buffer (50 μL) and lysate (40 μL) from the above culture plate; then the plate is incubated at room temperature for 2 hours. The culture medium is discarded and the plate is washed twice with binding buffer, followed by adding a solution of 1st antibody (diluted with binding buffer 1:1000, 100 μL per well) and incubated at 37° C. for 1 hr. The solution is discarded and the plate is washed twice with binding buffer. Then a solution of 2nd antibody is added (100 μL per well) and incubated at 37° C. for another hour. The medium is discarded and the plate is washed twice with binding buffer and once with PBS. To each well, 100 μL of A.B.T.S solution is added and incubated at 37° C. for 30 min. Then OD405 is analyzed on an ENVISION plate reader. This assay has a Minimum Significant Ratio (MSA) of 2-3. [Samples] All exemplified compounds and Crizotinib as the positive control [Data Analysis] Background (no cell lysate): 0.084 • Max (no test compound): 0.517 [formula] [Software] Use CBIS data analysis software to calculate IC50 values
For orientation: An ELISA detects its analyte on a solid surface through an enzyme-linked reagent.

The target in assay [2] is c-Met kinase (1038-1346AA) (Homo sapiens (Human), UniProt P08581). Briefly: c-Met in vitro kinase assay (Lance Ultra ULight-TK). Type of assay: biochemical. The settings on record: c-Met kinase 12.5 nM, ATP 2.5 uM, 30° C.; read-out: c-Met Enzyme IC50. The protocol:
c-Met In Vitro Kinase Assay [Method] Use Lance@Ultra Ulight™-TK test kits from PerKinElmer to evaluate the inhibition of c-Met kinase by the compounds [Instrument] ENVISION plate reader of PerKinElmer […] Then ATP (final concentration 2.5 uM) and kinase substrate (final concentration 50 nM) are added. […] After 1 hr, the plate is read at 615 nm and 665 nm. The ratio of […] at 665 nm and 615 nm is calculated and used for the data analysis as follows. This assay has a Minimum Significant Ratio (MSA) of 2-3. [Samples] All exampled compounds and Crizotinib as the positive control [Data Analysis] Background—the ratio of 665 nm/615 nm (no enzyme):0.003285 • Max—the ratio of 665 nm/615 nm (no test compound):0.075356 [formula] [Software] Use CBIS data analysis software to calculate IC50 values

The term IC50 denotes the midpoint of a concentration-inhibition curve.

The structures appear in SMILES notation.

Chain of c-Met protein in S114 cells (P08581 25-1390): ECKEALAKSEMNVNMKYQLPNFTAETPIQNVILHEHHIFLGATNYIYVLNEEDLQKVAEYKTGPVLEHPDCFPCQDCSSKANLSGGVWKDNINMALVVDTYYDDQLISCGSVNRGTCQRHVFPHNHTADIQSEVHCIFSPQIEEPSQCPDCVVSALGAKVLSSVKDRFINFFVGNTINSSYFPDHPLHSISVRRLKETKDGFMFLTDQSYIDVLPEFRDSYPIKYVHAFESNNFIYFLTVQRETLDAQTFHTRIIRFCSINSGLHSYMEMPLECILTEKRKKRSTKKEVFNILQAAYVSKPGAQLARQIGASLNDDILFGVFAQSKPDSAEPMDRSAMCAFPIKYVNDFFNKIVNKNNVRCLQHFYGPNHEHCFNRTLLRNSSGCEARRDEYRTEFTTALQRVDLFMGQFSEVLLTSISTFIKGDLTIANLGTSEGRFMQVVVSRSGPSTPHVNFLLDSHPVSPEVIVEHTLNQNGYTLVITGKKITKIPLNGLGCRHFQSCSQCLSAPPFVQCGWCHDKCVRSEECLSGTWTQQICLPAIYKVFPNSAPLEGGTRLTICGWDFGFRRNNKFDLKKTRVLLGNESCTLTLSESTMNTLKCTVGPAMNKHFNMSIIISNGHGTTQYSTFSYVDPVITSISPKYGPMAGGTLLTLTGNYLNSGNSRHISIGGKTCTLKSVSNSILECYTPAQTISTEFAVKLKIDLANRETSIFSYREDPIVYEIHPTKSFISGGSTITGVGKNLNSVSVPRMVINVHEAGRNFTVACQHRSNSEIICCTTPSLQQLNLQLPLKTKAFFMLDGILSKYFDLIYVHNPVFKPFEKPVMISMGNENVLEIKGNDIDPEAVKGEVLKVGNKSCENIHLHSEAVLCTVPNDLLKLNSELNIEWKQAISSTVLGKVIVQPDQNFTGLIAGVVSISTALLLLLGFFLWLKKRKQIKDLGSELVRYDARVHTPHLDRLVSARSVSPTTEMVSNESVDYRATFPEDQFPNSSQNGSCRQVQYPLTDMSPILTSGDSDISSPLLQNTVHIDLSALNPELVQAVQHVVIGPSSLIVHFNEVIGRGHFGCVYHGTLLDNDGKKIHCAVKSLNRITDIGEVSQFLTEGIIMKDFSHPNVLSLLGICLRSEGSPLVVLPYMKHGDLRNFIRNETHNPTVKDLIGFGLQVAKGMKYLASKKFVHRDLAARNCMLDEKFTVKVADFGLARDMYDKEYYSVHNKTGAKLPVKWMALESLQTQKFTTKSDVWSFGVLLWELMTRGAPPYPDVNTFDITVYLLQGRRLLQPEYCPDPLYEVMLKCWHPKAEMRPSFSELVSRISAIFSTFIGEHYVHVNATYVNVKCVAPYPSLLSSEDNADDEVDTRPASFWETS
Chain of c-Met kinase (1038-1346AA) (P08581 1038-1346): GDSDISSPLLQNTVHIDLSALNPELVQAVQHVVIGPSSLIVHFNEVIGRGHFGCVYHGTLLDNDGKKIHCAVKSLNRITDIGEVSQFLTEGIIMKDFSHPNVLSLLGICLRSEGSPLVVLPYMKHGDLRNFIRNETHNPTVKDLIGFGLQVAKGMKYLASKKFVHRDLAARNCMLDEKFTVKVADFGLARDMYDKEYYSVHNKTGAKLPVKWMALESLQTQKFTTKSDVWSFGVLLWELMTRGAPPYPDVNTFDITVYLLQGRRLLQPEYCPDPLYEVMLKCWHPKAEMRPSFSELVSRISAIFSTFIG

For the compound `CNC(=O)c1ccc(-c2ccc3nnc(C(F)(F)c4ccc5nn(C)cc5c4F)n3n2)cc1F` [Example 1, 4-(3-(Difluoro(4-fluoro-2-methyl-2H-indazol-5-yl)methyl)-[1,2,4]triazolo[4,3-b]pyridazin-6-yl)-2-fluoro-N-methylbenzamide], the IC50 was determined as 3.9 nM in assay [1] and 48.8 nM in assay [2].
On to `CN(C)C(=O)c1ccc(-c2ccc3nnc(C(F)(F)c4ccc5nn(C)cc5c4F)n3n2)cc1F` [Example 2], for which the IC50 in assay [1] was found to be 103 nM; in assay [2], 148 nM.
For `CCNC(=O)c1ccc(-c2ccc3nnc(C(F)(F)c4ccc5nn(C)cc5c4F)n3n2)cc1F` [Example 3], the figures for the IC50 in assay [1] and in assay [2] were 71.5 nM and 69.3 nM, respectively.
Take `CC(C)NC(=O)c1ccc(-c2ccc3nnc(C(F)(F)c4ccc5nn(C)cc5c4F)n3n2)cc1F` [Example 4]: the IC50 was 2.6 nM in assay [1] and 83.9 nM in assay [2].
Regarding `Cn1cc2c(F)c(C(F)(F)c3nnc4ccc(-c5ccc(C(=O)NC6CC6)c(F)c5)nn34)ccc2n1` [Example 5], the figures for the IC50 in assay [1] and in assay [2] were 23.2 nM and 45.4 nM, respectively.
For `CNC(=O)c1c(F)cc(-c2ccc3nnc(C(F)(F)c4ccc5nn(C)cc5c4F)n3n2)cc1F` [Example 6], in that order: 9.5 nM and 36.5 nM.
For `Cn1cc2c(F)c(C(F)(F)c3nnc4ccc(-c5ccc(NC(=O)C6CC6)c(F)c5)nn34)ccc2n1` [Example 7], in that order: 49.6 nM and 76.4 nM.
Consider `CNC(=O)c1ccc(-c2ccc3nnc(C(F)(F)c4ccc5nn(C)cc5c4F)n3n2)cn1` [Example 8], for which the IC50 in assay [1] was 122 nM.
On the same count and under the same terms, then `Cc1cncc(-c2ccc3nnc(C(F)(F)c4ccc5nn(C)cc5c4F)n3n2)c1` [Example 9], with 85 nM; and `Cn1cc2c(F)c(C(F)(F)c3nnc4ccc(-c5cncc(F)c5)nn34)ccc2n1` [Example 10], with 142 nM.
On the same count and under the same terms, the figure for `Cn1cc2c(F)c(C(F)(F)c3nnc4ccc(-c5cncc(Cl)c5)nn34)ccc2n1` [Example 11] is 42 nM.
For `Cn1cc2c(F)c(C(F)(F)c3nnc4ccc(-c5ccc(C#N)nc5)nn34)ccc2n1` [Example 13], the figures for the IC50 in assay [1] and in assay [2] were 190 nM and 182 nM, respectively.
For `CC(C)n1cc(-c2ccc3nnc(C(F)(F)c4ccc5nn(C)cc5c4F)n3n2)cn1` [Example 14], in that order: 22.5 nM and 102 nM.
On to `COCCn1cc(-c2ccc3nnc(C(F)(F)c4ccc5nn(C)cc5c4F)n3n2)cn1` [Example 15], for which the IC50 in assay [1] is 383 nM; in assay [2], 380 nM.
The corresponding values for `Cn1cc2c(F)c(C(F)(F)c3nnc4ccc(-c5cnn(CC6COCO6)c5)nn34)ccc2n1` (stereo not shown) [Example 16] are 179 nM and 247 nM.
On to `Cn1cc2c(F)c(C(F)(F)c3nnc4ccc(-c5ccc(S(N)(=O)=O)c(F)c5)nn34)ccc2n1` [Example 17], for which the IC50 turned out to be 55.6 nM in assay [1] and 77.6 nM in assay [2].
For `CNC(=O)c1ccc(-c2ccc3nnc(C(F)(F)c4cc5cn(C)nc5cc4F)n3n2)c(F)c1` [Example 18], the IC50 was found to be 206 nM in assay [1] and 90.8 nM in assay [2].
For `CNC(=O)c1ccc(-c2ccc3nnc(C(F)(F)c4cc5cn(C)nc5cc4F)n3n2)cc1F` [Example 19], in that order: 5.7 nM and 25.6 nM.
Take `CC(C)NC(=O)c1ccc(-c2ccc3nnc(C(F)(F)c4cc5cn(C)nc5cc4F)n3n2)c(F)c1` [Example 20]: the figures for the IC50 in assay [1] and in assay [2] were 158 nM and 137 nM, respectively.
As to `CN(C)C(=O)c1ccc(-c2ccc3nnc(C(F)(F)c4cc5cn(C)nc5cc4F)n3n2)cc1F` [Example 21], the half-maximal inhibitory concentration (IC50) was determined as 262 nM in assay [1] and 180 nM in assay [2].
For `CCNC(=O)c1ccc(-c2ccc3nnc(C(F)(F)c4cc5cn(C)nc5cc4F)n3n2)cc1F` [Example 22], in that order: 15.5 nM and 20.7 nM.
On to `CC(C)NC(=O)c1ccc(-c2ccc3nnc(C(F)(F)c4cc5cn(C)nc5cc4F)n3n2)cc1F` [Example 23], for which the IC50 in assay [1] was found to be 1.1 nM; in assay [2], 41.6 nM.
Turning to `Cn1cc2cc(C(F)(F)c3nnc4ccc(-c5ccc(C(=O)NC6CC6)c(F)c5)nn34)c(F)cc2n1` [Example 24], the IC50 turned out to be 14.9 nM in assay [1] and 43.4 nM in assay [2].
`Cn1cc2cc(C(F)(F)c3nnc4ccc(-c5ccc(C(=O)N6CCCC6)c(F)c5)nn34)c(F)cc2n1` [Example 25]: the IC50 in assay [1] was found to be 52.7 nM; in assay [2], 125 nM.
As to `Cn1cc2cc(C(F)(F)c3nnc4ccc(-c5ccc(C(=O)N6CCOCC6)c(F)c5)nn34)c(F)cc2n1` [Example 26], the IC50 was 299 nM in assay [1] and 357 nM in assay [2].
For `CN1CCN(C(=O)c2ccc(-c3ccc4nnc(C(F)(F)c5cc6cn(C)nc6cc5F)n4n3)cc2F)CC1` [Example 27], in that order: 324 nM and 148 nM.
For `CNC(=O)c1c(F)cc(-c2ccc3nnc(C(F)(F)c4cc5cn(C)nc5cc4F)n3n2)cc1F` [Example 28], in that order: 14.2 nM and 27.7 nM.
The corresponding values for `Cn1cc2cc(C(F)(F)c3nnc4ccc(-c5ccc(NC(=O)C6CC6)c(F)c5)nn34)c(F)cc2n1` [Example 29] are 7.9 nM and 29.5 nM.
Consider `CNC(=O)c1cc(-c2ccc3nnc(C(F)(F)c4cc5cn(C)nc5cc4F)n3n2)ccn1` [Example 30], for which the concentration for half-maximal inhibition (IC50) is 45 nM in assay [1] and 51.8 nM in assay [2].
For `CNC(=O)c1ccc(-c2ccc3nnc(C(F)(F)c4cc5cn(C)nc5cc4F)n3n2)cn1` [Example 31], in that order: 60.6 nM and 81.4 nM.
The corresponding values for `Cc1cncc(-c2ccc3nnc(C(F)(F)c4cc5cn(C)nc5cc4F)n3n2)c1` [Example 32] are 37.7 nM and 109 nM.
As for `Cn1cc2cc(C(F)(F)c3nnc4ccc(-c5cncc(F)c5)nn34)c(F)cc2n1` [Example 33], the IC50 stood at 210 nM in assay [1] and 242 nM in assay [2].
For `Cn1cc2cc(C(F)(F)c3nnc4ccc(-c5cncc(Cl)c5)nn34)c(F)cc2n1` [Example 34], in that order: 57.6 nM and 53.2 nM.
For `Cn1cc2cc(C(F)(F)c3nnc4ccc(-c5ccc(C#N)nc5)nn34)c(F)cc2n1` [Example 35], in that order: 88.1 nM and 65 nM.
`Cc1cc(-c2ccc3nnc(C(F)(F)c4cc5cn(C)nc5cc4F)n3n2)ccn1` [Example 36]: the IC50 in assay [1] was found to be 34 nM; in assay [2], 113 nM.
Take `Cn1cc(-c2ccc3nnc(C(F)(F)c4cc5cn(C)nc5cc4F)n3n2)cn1` [Example 37]: the IC50 in assay [1] is 13.7 nM; in assay [2] it was 50.7 nM.
In the case of `CC(C)n1cc(-c2ccc3nnc(C(F)(F)c4cc5cn(C)nc5cc4F)n3n2)cn1` [Example 38], the IC50 in assay [1] was 44.1 nM; in assay [2] it was 82.9 nM.
For `Cn1cc2cc(C(F)(F)c3nnc4ccc(-c5cnn(C6CCOC6)c5)nn34)c(F)cc2n1` (stereo not shown) [Example 39], in that order: 204 nM and 79.7 nM.
For `COCCn1cc(-c2ccc3nnc(C(F)(F)c4cc5cn(C)nc5cc4F)n3n2)cn1` [Example 40], the IC50 in assay [1] is 134 nM; in assay [2], 203 nM.
As to `O=C(NCCN1CCOCC1)n1cc2cc(C(F)(F)c3nnc4ccc(-c5cnn(C6CC6)c5)nn34)c(F)cc2n1` [Example 51], in assay [2], the IC50 was 4130 nM.
Consider `Nc1nc2ccc(C(F)(F)c3nnc4ccc(-c5cnn(C6CC6)c5)nn34)cc2[nH]1` [Example 52], for which the IC50 in assay [2] is 568 nM.
